Patent US11485728B2, “Small molecules for the treatment of autoimmune diseases and cancer” (Athos Therapeutics, Inc., priority 2020, dated 2022)

Legend:
CYP2D6 = biological target: T1, CYP2D6 (Homo sapiens, UniProt P10635); assay: CYP-direct inhibition, CYP2D6; type: in vitro ADME; settings: human liver microsome; substrate dextromethorphan; read-out: IC50 CYP-2D6
T1 construct: from tissue; host or cells: pooled human liver microsomes
Protocol: (§1) Many drugs inhibit cytochrome P450 enzymes to cause clinically significant changes in the pharmacokinetics of other drugs. In vitro cytochrome P450 inhibition, can provide crucial information in evaluating potential clinical drug-drug interactions and is useful for focusing in vivo tests to areas of concern. The cytochrome P450 inhibition assay was developed by preparing a working cocktail solution consisting of six probe substrates 10 μM ethoxy-resorufin (CYP1A2), 100 μM rosiglitazone (CYP2C8), 50 μM diclofenac (CYP2C9), 300 μM S-mephenytoin (CYP2C19), 50 μM dextromethorphan (CYP2D6), and 20 μM midazolam (CYP3A4). A mixture solution consists of 140 uL of 0.286 mg/mL of pooled human liver microsome working solution and 20 uL working solutions of test articles, standard control inhibitors, or positive control placebo and 20 uL of substrate cocktail mixture working solution was prepared. The mixture solution was pre-warm in a gentle shaking bath at 37±2° C. for 5 minutes. The enzymatic reaction started by adding 20 uL of NRS working solution to the mixture solution and incubated for 10 minutes at 37±2° C. To stop the reaction, an addition of 400 μL cold stop solution (acetonitrile containing 50 ng/mL Tolbutamide as an internal standard (I.Std.) was added to the mixture solution. The final concentration of test article, inhibitors, substrates, and cofactors are noted in Table 0.1 below. Two individual samples were prepared for each test compound. The extracted samples were vortexed and then centrifuged at 4500 rpm for 7 minutes using Eppendorf Centrifuge 5910R. 200 uL of supernatant was diluting with 200 uL of 50% Methanol into 96-DW plate for LC/MS/MS analysis
(§2) Concentration-response plots are used to determine the effects of an inhibitor on an enzymatic reaction. A typical concentration-response plot provides fractional activity (Y axis) is plotted as a function of log inhibitor concentration (X axis). The data are fitted using a standard Sigmoidal dose-response equation which is also called a […] logistic equation. The concentration of compound that results in 50% inhibition of maximal activity is termed as the IC50 (inhibitor concentration yielding 50% inhibition). IC50 value is calculated using Prism GraphPad software, version 9. […].
(§3) Cytochrome P450 inhibition of a drug is a key factor in determining pharmacokinetic drug-drug interactions. The objective of this study was to evaluate the inhibition potential of G9a inhibitors on six (6) major human cytochrome P450 enzymes, including CYP1A2, CYP2C8, CYP2C9, CYP2C19, CYP2D6, and CYP3A4. Inhibition was determined by using a substrate cocktail and analyzing the rate of specific metabolites formation. The cytochrome P450 inhibition assay was developed using a cocktail consisting of six (6) probe substrates ethoxy-resorufin (CYP1A2), rosiglitazone (CYP2C8), diclofenac (CYP2C9), S-mephenytoin (CYP2C19), dextromethorphan (CYP2D6), and midazolam (CYP3A4). The cocktail was incubated in human liver microsome with NADPH regenerating system (NRS) in a shaking bath at 37±2° C. The formation of specific metabolites was monitored by LC/MS/MS. Test compound was added to the cocktail-liver microsome mixture at varying concentrations and its effect on cytochrome P450 activity was determined by analyzing the rate of specific metabolite formation. The percent inhibition was calculated and plotted with reference to the concentration, and the IC50 value for inhibition was derived by fitting the data with a using log(inhibitor) vs. normalized response with variable slope least squares fit by Graphpad Prism® software. […].

CYP3A4 = biological target: T2, CYP3A4 (Homo sapiens, UniProt P08684); assay: CYP-direct inhibition, CYP3A4; type: in vitro ADME
T2 construct: from tissue; host or cells: pooled human liver microsomes
T2 sequence (P08684 whole entry): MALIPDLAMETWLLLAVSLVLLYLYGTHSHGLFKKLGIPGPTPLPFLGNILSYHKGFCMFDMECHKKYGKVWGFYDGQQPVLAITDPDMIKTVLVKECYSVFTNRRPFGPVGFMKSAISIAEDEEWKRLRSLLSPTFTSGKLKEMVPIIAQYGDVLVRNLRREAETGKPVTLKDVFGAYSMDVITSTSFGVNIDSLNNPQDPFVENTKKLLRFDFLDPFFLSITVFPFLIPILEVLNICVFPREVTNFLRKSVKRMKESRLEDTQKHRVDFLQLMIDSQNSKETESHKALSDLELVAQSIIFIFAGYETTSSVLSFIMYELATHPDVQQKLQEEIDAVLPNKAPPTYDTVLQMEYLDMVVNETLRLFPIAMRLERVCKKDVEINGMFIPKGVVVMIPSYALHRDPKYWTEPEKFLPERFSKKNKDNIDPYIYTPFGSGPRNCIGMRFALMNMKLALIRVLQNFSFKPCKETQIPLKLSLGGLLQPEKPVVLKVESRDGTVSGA
Protocol: as §1, §2, §3

PAMPA permeability = settings: PAMPA, 5 hours at RT
[1] = In-vitro half-life in rat liver microsomes; type: in vitro ADME; settings: Rat liver microsomes 0.5 mg/mL; 1 μg/mL drug; NRS; read-out: Metabolic Half-life
How it was run: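 Compound at 1 μg/mL final was incubated with 0.5 mg/mL liver microsomes plus NADPH regenerating system at 37° C, sampled in duplicate at 0–60 min. Remaining parent was measured by LC-MS/MS, and half-life was calculated from first-order log-linear regression of % remaining versus time.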

[2] = PAMPA permeability Classification, 20 μM donor
[3] = Permeability, Pe, 20 μM donor in PBS/MeOH 90:10

T1 sequence (P10635 whole entry): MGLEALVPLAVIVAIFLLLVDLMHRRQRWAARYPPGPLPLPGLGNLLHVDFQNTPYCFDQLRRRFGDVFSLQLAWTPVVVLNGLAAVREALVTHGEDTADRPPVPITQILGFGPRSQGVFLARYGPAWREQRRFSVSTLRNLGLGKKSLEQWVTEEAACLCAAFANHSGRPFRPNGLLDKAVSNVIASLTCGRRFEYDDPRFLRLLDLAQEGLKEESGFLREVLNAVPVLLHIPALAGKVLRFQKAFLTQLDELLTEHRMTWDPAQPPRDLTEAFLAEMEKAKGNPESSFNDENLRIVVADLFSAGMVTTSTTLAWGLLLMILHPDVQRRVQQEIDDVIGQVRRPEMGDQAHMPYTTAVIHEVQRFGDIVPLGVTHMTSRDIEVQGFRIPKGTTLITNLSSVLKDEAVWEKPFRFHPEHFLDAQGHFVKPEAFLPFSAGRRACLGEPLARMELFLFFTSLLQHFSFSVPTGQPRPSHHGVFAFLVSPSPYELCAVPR

| IC50 (CYP2D6) [µM] | IC50 (CYP3A4) [µM] | Papp at 5 h, 20 μM (PAMPA permeability; [2]) [×10⁻⁶ cm/s] | Papp at 5 h, 20 μM (PAMPA permeability; [3]) [×10⁻⁶ cm/s] | half-life at 1 μg/mL [1] [min] | SMILES |
| --- | --- | --- | --- | --- | --- |
| 86.2 | > 100 | < 0.055 | 0.00431 | 22 | COc1cc2c(NC3CCOCC3)nc(N3CCCN(C)CC3)nc2cc1OCCCN1CCCC1 [Compound 237, 6-methoxy-2-(4-methyl-1,4-diazepan-1-yl)-7-(3-(pyrrolidin-1-yl)propoxy)-N-(tetrahydro-2H-pyran-4-yl)quinazolin-4-amine] |
| 55.9 | > 100 | 0.055 to 1.5 | 1.32 | 16.9 | COc1cc2c(NC3CCS(=O)(=O)CC3)nc(N3CCC(F)(F)CC3)nc2cc1C#CCN1CCCC1 [Compound 248, 4-((2-(4,4-difluoropiperidin-1-yl)-6-methoxy-7-(3-(pyrrolidin-1-yl)prop-1-yn-1-yl)quinazolin-4-yl)amino)tetrahydro-2H-thiopyran 1,1-dioxide] |
